Source: the NIST ThermoML archive (doi:10.1016/j.jct.2007.08.002)
± gives the expanded uncertainty stated by the source.

Experiment: molar heat capacity at saturation pressure
Details: Crystal 3, Small (less than 1 g) adiabatic calorimetry

`NC12CC3CC(CC(C3)C1)C2` [tricyclo(3.3.1.1:3,7)decan-1-amine] gave a molar heat capacity (96.48 K) of 63.45 ± 0.46 J/K/mol, a molar heat capacity (98.3 K) of 64.46 ± 0.46 J/K/mol and a molar heat capacity (100.14 K) of 65.47 ± 0.47 J/K/mol. It also gave a molar heat capacity (101.97 K) of 66.49 ± 0.47 J/K/mol, a molar heat capacity (103.81 K) of 67.54 ± 0.47 J/K/mol and a molar heat capacity (105.65 K) of 68.56 ± 0.47 J/K/mol. For the same compound, the molar heat capacity (107.49 K) was 69.56 ± 0.48 J/K/mol, the molar heat capacity (109.33 K) was 70.65 ± 0.48 J/K/mol and the molar heat capacity (111.18 K) was 71.75 ± 0.49 J/K/mol. It also gave a molar heat capacity (113.03 K) of 72.83 ± 0.49 J/K/mol, a molar heat capacity (114.88 K) of 73.92 ± 0.5 J/K/mol and a molar heat capacity (116.73 K) of 75.05 ± 0.5 J/K/mol. It also gave a molar heat capacity (118.59 K) of 76.14 ± 0.51 J/K/mol, a molar heat capacity (120.45 K) of 77.29 ± 0.51 J/K/mol and a molar heat capacity (122.31 K) of 78.44 ± 0.52 J/K/mol. For the same compound, the molar heat capacity (124.17 K) was 79.61 ± 0.52 J/K/mol, the molar heat capacity (126.03 K) was 80.8 ± 0.52 J/K/mol and the molar heat capacity (127.9 K) was 82.02 ± 0.53 J/K/mol. It also gave a molar heat capacity (129.77 K) of 83.23 ± 0.5 J/K/mol, a molar heat capacity (131.64 K) of 84.39 ± 0.5 J/K/mol and a molar heat capacity (133.51 K) of 85.64 ± 0.58 J/K/mol. The molar heat capacity (135.38 K) was 86.8 ± 0.58 J/K/mol, the molar heat capacity (137.26 K) was 88.05 ± 0.58 J/K/mol and the molar heat capacity (139.13 K) was 89.21 ± 0.58 J/K/mol. It also gave a molar heat capacity (141.01 K) of 90.54 ± 0.58 J/K/mol, a molar heat capacity (142.89 K) of 91.79 ± 0.58 J/K/mol and a molar heat capacity (144.78 K) of 93.04 ± 0.58 J/K/mol. It also gave a molar heat capacity (146.66 K) of 94.37 ± 0.58 J/K/mol, a molar heat capacity (148.56 K) of 95.62 ± 0.58 J/K/mol and a molar heat capacity (150.44 K) of 96.95 ± 0.58 J/K/mol. It also gave a molar heat capacity (150.6 K) of 97.03 ± 0.58 J/K/mol, a molar heat capacity (152.33 K) of 98.28 ± 0.58 J/K/mol and a molar heat capacity (153.55 K) of 99.11 ± 0.58 J/K/mol. For the same compound, the molar heat capacity (154.22 K) was 99.61 ± 0.58 J/K/mol, the molar heat capacity (156.12 K) was 100.94 ± 0.58 J/K/mol and the molar heat capacity (156.34 K) was 101.19 ± 0.58 J/K/mol. For the same compound, the molar heat capacity (158.01 K) was 102.27 ± 0.58 J/K/mol, the molar heat capacity (159.13 K) was 103.18 ± 0.58 J/K/mol and the molar heat capacity (159.9 K) was 103.68 ± 0.58 J/K/mol. It also gave a molar heat capacity (161.8 K) of 105.09 ± 0.58 J/K/mol, a molar heat capacity (161.91 K) of 105.26 ± 0.58 J/K/mol and a molar heat capacity (163.69 K) of 106.59 ± 0.67 J/K/mol. It also gave a molar heat capacity (164.48 K) of 107.17 ± 0.67 J/K/mol, a molar heat capacity (165.59 K) of 108 ± 0.67 J/K/mol and a molar heat capacity (166.66 K) of 108.92 ± 0.67 J/K/mol. The molar heat capacity (167.48 K) was 109.5 ± 0.67 J/K/mol, the molar heat capacity (168.73 K) was 110.58 ± 0.67 J/K/mol and the molar heat capacity (169.38 K) was 111 ± 0.67 J/K/mol. It also gave a molar heat capacity (170.79 K) of 112.25 ± 0.67 J/K/mol, a molar heat capacity (171.28 K) of 112.58 ± 0.67 J/K/mol and a molar heat capacity (172.85 K) of 113.91 ± 0.67 J/K/mol. The molar heat capacity (173.18 K) was 114.16 ± 0.67 J/K/mol, the molar heat capacity (174.91 K) was 115.65 ± 0.67 J/K/mol and the molar heat capacity (175.08 K) was 115.74 ± 0.67 J/K/mol. It also gave a molar heat capacity (176.96 K) of 117.4 ± 0.67 J/K/mol, a molar heat capacity (176.98 K) of 117.32 ± 0.67 J/K/mol and a molar heat capacity (178.89 K) of 119.06 ± 0.67 J/K/mol. For the same compound, the molar heat capacity (179.01 K) was 119.23 ± 0.67 J/K/mol, the molar heat capacity (180.8 K) was 120.73 ± 0.67 J/K/mol and the molar heat capacity (181.05 K) was 120.98 ± 0.67 J/K/mol. For the same compound, the molar heat capacity (182.71 K) was 122.39 ± 0.67 J/K/mol, the molar heat capacity (183.09 K) was 122.8 ± 0.67 J/K/mol and the molar heat capacity (184.61 K) was 124.05 ± 0.67 J/K/mol. For the same compound, the molar heat capacity (185.12 K) was 124.63 ± 0.67 J/K/mol, the molar heat capacity (186.52 K) was 125.8 ± 0.67 J/K/mol and the molar heat capacity (187.15 K) was 126.46 ± 0.75 J/K/mol. It also gave a molar heat capacity (188.43 K) of 127.63 ± 0.75 J/K/mol, a molar heat capacity (189.18 K) of 128.38 ± 0.75 J/K/mol and a molar heat capacity (190.33 K) of 129.46 ± 0.75 J/K/mol. For the same compound, the molar heat capacity (191.2 K) was 130.37 ± 0.75 J/K/mol, the molar heat capacity (192.24 K) was 131.37 ± 0.75 J/K/mol and the molar heat capacity (193.21 K) was 132.53 ± 0.75 J/K/mol. The molar heat capacity (194.15 K) was 133.36 ± 0.75 J/K/mol and the molar heat capacity (195.22 K) was 134.61 ± 0.75 J/K/mol.
